Test results reported in patent US4393225A, “AI-77 Compounds and pharmaceutically acceptable salts thereof” (Asahi Kasei Kogyo Kabushiki Kaisha, priority 1979, dated 1983).

These molecules were tested on ulcer (assay: Anti-ulcer test (restraint and water immersion ulcer in rats, i.p.)). Conditions: Rattus norvegicus, ip, read-out: % Inhibition of Ulcer.
Type: in vivo, Male Wistar rats
Procedure, shortened: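 Compound given intraperitoneally in saline to 24 h-fasted male Wistar rats about 150 g, followed after one hour by 6 h restraint with water immersion at 21 °C. Gastric lesions graded 0, 0.5, 1, 2 or 3 on microscopic inspection and converted to percent ulcer inhibition.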

| SMILES | inhibition in vivo at 25 mg/kg [%] |
| --- | --- |
| CC(C)CC(NC(=O)C(O)C(O)C(N)CC(N)=O)C1Cc2cccc(O)c2C(=O)O1 (centres unmarked) [VII-1-1] | 100 |

Same assay, conditions: Rattus norvegicus, ip; 25 mg/kg i.p.; read-out: % Inhibition of Ulcer

| SMILES | inhibition in vivo at 25 mg/kg [%] |
| --- | --- |
| CNC(=O)CC(N)C(O)C(O)C(=O)NC(CC(C)C)C1Cc2cccc(O)c2C(=O)O1 (centres unmarked) [VII-1-2] | 100 |
| CCNC(=O)CC(N)C(O)C(O)C(=O)NC(CC(C)C)C1Cc2cccc(O)c2C(=O)O1 (centres unmarked) [VII-1-3] | 100 |
| CCCCNC(=O)CC(N)C(O)C(O)C(=O)NC(CC(C)C)C1Cc2cccc(O)c2C(=O)O1 (centres unmarked) [VII-1-4] | 100 |
| CC(C)CCNC(=O)CC(N)C(O)C(O)C(=O)NC(CC(C)C)C1Cc2cccc(O)c2C(=O)O1 (centres unmarked) [VII-1-5] | 100 |
| CCCCCCCCCCCCCCCCCCNC(=O)CC(N)C(O)C(O)C(=O)NC(CC(C)C)C1Cc2cccc(O)c2C(=O)O1 (centres unmarked) [VII-1-6] | 89 |

Same assay, conditions: Rattus norvegicus, ip; 50 mg/kg i.p.; read-out: % Inhibition of Ulcer

| SMILES | inhibition in vivo at 50 mg/kg [%] |
| --- | --- |
| CNC1CC(=O)OC1C(OC(=O)CC(C)C)C(=O)NC(CC(C)C)C1Cc2cccc(O)c2C(=O)O1 (centres unmarked) [IIIa-28-2] | 66 |
| CNC1CC(=O)OC1C(OC(=O)C(Cl)(Cl)Cl)C(=O)NC(CC(C)C)C1Cc2cccc(O)c2C(=O)O1 (centres unmarked) [IIIa-28-3] | 66 |
| CNC1CC(=O)OC1C(OC(C)=O)C(=O)NC(CC(C)C)C1Cc2cccc(OC(C)=O)c2C(=O)O1 (centres unmarked) [IIIa-29-1] | 56 |
| CNC1CC(=O)OC1C(O)C(=O)NC(CC(C)C)C1Cc2cccc(OC(C)=O)c2C(=O)O1 (centres unmarked) [IIIa-30-1] | 78 |
| CNC1CC(=O)OC1C(O)C(=O)NC(CC(C)C)C1Cc2cccc(OC)c2C(=O)O1 (centres unmarked) [IIIa-31-1] | 94 |
| CCOc1cccc2c1C(=O)OC(C(CC(C)C)NC(=O)C(O)C1OC(=O)CC1NC)C2 (centres unmarked) [IIIa-31-2] | 94 |
| CCCCCCCCCCCCCCCCCCOc1cccc2c1C(=O)OC(C(CC(C)C)NC(=O)C(O)C1OC(=O)CC1NC)C2 (centres unmarked) [IIIa-31-3] | 78 |
| CNC1CC(=O)OC1C(O)C(=O)NC(CC(C)C)C1Cc2cccc(OCCC(C)C)c2C(=O)O1 (centres unmarked) [IIIa-31-4] | 89 |
| CCOc1cccc2c1C(=O)OC(C(CC(C)C)NC(=O)C(OC(C)=O)C1OC(=O)CC1NC)C2 (centres unmarked) [IIIa-32-1] | 56 |
| CCOc1cccc2c1C(=O)OC(C(CC(C)C)NC(=O)C(OC(=O)C(C)C)C1OC(=O)CC1NC)C2 (centres unmarked) [IIIa-32-2] | 44 |
| CCCCOC(C(=O)NC(CC(C)C)C1Cc2cccc(OC)c2C(=O)O1)C1OC(=O)CC1NC (centres unmarked) [IIIa-33-1] | 56 |
| CCCCOc1cccc2c1C(=O)OC(C(CC(C)C)NC(=O)C(OCCCC)C1OC(=O)CC1NC)C2 (centres unmarked) [IIIa-33-3] | 56 |
| CNC1CC(=O)OC1C(OC)C(=O)NC(CC(C)C)C1Cc2cccc(O)c2C(=O)O1 (centres unmarked) [IIIa-34-1] | 66 |
| CNC1CC(=O)OC1C(OC)C(=O)NC(CC(C)C)C1Cc2cccc(OC(C)=O)c2C(=O)O1 (centres unmarked) [IIIa-35-1] | 56 |
| CC(=O)OC(C(=O)NC(CC(C)C)C1Cc2cccc(O)c2C(=O)O1)C1C=CC(=O)O1 (centres unmarked) [IVa-1-1] | 44 |
| CCC(=O)OC(C(=O)NC(CC(C)C)C1Cc2cccc(O)c2C(=O)O1)C1C=CC(=O)O1 (centres unmarked) [IVa-1-2] | 44 |
| CCCC(=O)OC(C(=O)NC(CC(C)C)C1Cc2cccc(O)c2C(=O)O1)C1C=CC(=O)O1 (centres unmarked) [IVa-1-3] | 44 |
| CC(C)CC(NC(=O)C(OC(=O)C(C)C)C1C=CC(=O)O1)C1Cc2cccc(O)c2C(=O)O1 (centres unmarked) [IVa-1-4] | 44 |
| CC(C)CC(=O)OC(C(=O)NC(CC(C)C)C1Cc2cccc(O)c2C(=O)O1)C1C=CC(=O)O1 (centres unmarked) [IVa-1-5] | 44 |
| CCCCC(=O)OC(C(=O)NC(CC(C)C)C1Cc2cccc(O)c2C(=O)O1)C1C=CC(=O)O1 (centres unmarked) [IVa-1-6] | 44 |
| CCCCCC(=O)OC(C(=O)NC(CC(C)C)C1Cc2cccc(O)c2C(=O)O1)C1C=CC(=O)O1 (centres unmarked) [IVa-1-7] | 44 |

| SMILES | inhibition in vivo at 50 mg/kg [%] |
| --- | --- |
| CCCCCCC(=O)OC(C(=O)NC(CC(C)C)C1Cc2cccc(O)c2C(=O)O1)C1C=CC(=O)O1 (centres unmarked) [IVa-1-8] | 33 |
| CCCCCCCC(=O)OC(C(=O)NC(CC(C)C)C1Cc2cccc(O)c2C(=O)O1)C1C=CC(=O)O1 (centres unmarked) [IVa-1-9] | 33 |
| CCCCCCCCCCCC(=O)OC(C(=O)NC(CC(C)C)C1Cc2cccc(O)c2C(=O)O1)C1C=CC(=O)O1 (centres unmarked) [IVa-1-10] | 33 |
| CCCCCCCCCCCCCCCCCC(=O)OC(C(=O)NC(CC(C)C)C1Cc2cccc(O)c2C(=O)O1)C1C=CC(=O)O1 (centres unmarked) [IVa-1-11] | 33 |
| CC(C)CC(NC(=O)C(OC(=O)C(Cl)(Cl)Cl)C1C=CC(=O)O1)C1Cc2cccc(O)c2C(=O)O1 (centres unmarked) [IVa-1-12] | 44 |
| CCCCC(=O)Oc1cccc2c1C(=O)OC(C(CC(C)C)NC(=O)C(O)C1C=CC(=O)O1)C2 (centres unmarked) [IVa-3-4] | 33 |
| CCCCCC(=O)Oc1cccc2c1C(=O)OC(C(CC(C)C)NC(=O)C(O)C1C=CC(=O)O1)C2 (centres unmarked) [IVa-3-5] | 33 |
| CCCCCCC(=O)Oc1cccc2c1C(=O)OC(C(CC(C)C)NC(=O)C(O)C1C=CC(=O)O1)C2 (centres unmarked) [IVa-3-6] | 33 |
| CCCCCCCC(=O)Oc1cccc2c1C(=O)OC(C(CC(C)C)NC(=O)C(O)C1C=CC(=O)O1)C2 (centres unmarked) [IVa-3-7] | 33 |
| CCCCCCCCCCCC(=O)Oc1cccc2c1C(=O)OC(C(CC(C)C)NC(=O)C(O)C1C=CC(=O)O1)C2 (centres unmarked) [IVa-3-8] | 33 |
| CCCCCCCCCCCCCCCCCC(=O)Oc1cccc2c1C(=O)OC(C(CC(C)C)NC(=O)C(O)C1C=CC(=O)O1)C2 (centres unmarked) [IVa-3-9] | 33 |
| CC(C)CC(NC(=O)C(O)C1C=CC(=O)O1)C1Cc2cccc(OC(=O)C(C)C)c2C(=O)O1 (centres unmarked) [IVa-3-10] | 44 |
| CC(C)CC(=O)Oc1cccc2c1C(=O)OC(C(CC(C)C)NC(=O)C(O)C1C=CC(=O)O1)C2 (centres unmarked) [IVa-3-11] | 44 |
| CCCCCCCCC=CCCCCCCCC(=O)Oc1cccc2c1C(=O)OC(C(CC(C)C)NC(=O)C(O)C1C=CC(=O)O1)C2 (centres unmarked) [IVa-3-12] | 33 |
| CC(C)CC(NC(=O)C(O)C1C=CC(=O)O1)C1Cc2cccc(OC(=O)C(Cl)(Cl)Cl)c2C(=O)O1 (centres unmarked) [IVa-3-13] | 44 |
| CC(C)CC(NC(=O)C(O)C1C=CC(=O)O1)C1Cc2cccc(OC(=O)CCC3CCCC3)c2C(=O)O1 (centres unmarked) [IVa-3-15] | 33 |
| COc1ccc(C(=O)Oc2cccc3c2C(=O)OC(C(CC(C)C)NC(=O)C(O)C2C=CC(=O)O2)C3)cc1 (centres unmarked) [IVa-3-16] | 33 |
| COC(C)CC(=O)Oc1cccc2c1C(=O)OC(C(CC(C)C)NC(=O)C(O)C1C=CC(=O)O1)C2 (centres unmarked) [IVa-3-17] | 33 |
| C/C=C/C(=O)Oc1cccc2c1C(=O)OC(C(CC(C)C)NC(=O)C(O)C1C=CC(=O)O1)C2 (centres unmarked) [IVa-3-18] | 33 |
| COc1cccc2c1C(=O)OC(C(CC(C)C)NC(=O)C(O)C1C=CC(=O)O1)C2 (centres unmarked) [IVa-4-1] | 44 |
| CCOc1cccc2c1C(=O)OC(C(CC(C)C)NC(=O)C(O)C1C=CC(=O)O1)C2 (centres unmarked) [IVa-4-2] | 44 |

| SMILES | inhibition in vivo at 50 mg/kg [%] |
| --- | --- |
| CCCCOc1cccc2c1C(=O)OC(C(CC(C)C)NC(=O)C(O)C1C=CC(=O)O1)C2 (centres unmarked) [IVa-4-3] | 44 |
| CC(C)CCOc1cccc2c1C(=O)OC(C(CC(C)C)NC(=O)C(O)C1C=CC(=O)O1)C2 (centres unmarked) [IVa-4-4] | 44 |
| CCCCCCCCCCCCCCCCCCOc1cccc2c1C(=O)OC(C(CC(C)C)NC(=O)C(O)C1C=CC(=O)O1)C2 (centres unmarked) [IVa-4-5] | 33 |
| CC(C)CC(NC(=O)C(O)C1C=CC(=O)O1)C1Cc2cccc(OCCCl)c2C(=O)O1 (centres unmarked) [IVa-4-6] | 44 |
| CCCCCCCCC=CCCCCCCCCOc1cccc2c1C(=O)OC(C(CC(C)C)NC(=O)C(O)C1C=CC(=O)O1)C2 (centres unmarked) [IVa-4-7] | 33 |
| CC(C)CC(NC(=O)C(O)C1C=CC(=O)O1)C1Cc2cccc(OCc3ccccc3)c2C(=O)O1 (centres unmarked) [IVa-4-9] | 33 |
| CC(C)CC(NC(=O)C(O)C1C=CC(=O)O1)C1Cc2cccc(OCC3CCCCC3)c2C(=O)O1 (centres unmarked) [IVa-4-11] | 33 |
| CC(C)CC(NC(=O)C(O)C1C=CC(=O)O1)C1Cc2cccc(OCCc3ccccc3)c2C(=O)O1 (centres unmarked) [IVa-4-12] | 44 |
| CC(C)CC(NC(=O)C(O)C1C=CC(=O)O1)C1Cc2cccc(OCc3ccco3)c2C(=O)O1 (centres unmarked) [IVa-4-13] | 33 |
| CC(C)CC(NC(=O)C(O)C1C=CC(=O)O1)C1Cc2cccc(OCC3CCCO3)c2C(=O)O1 (centres unmarked) [IVa-4-14] | 33 |
| CC(C)CC(NC(=O)C(O)C1C=CC(=O)O1)C1Cc2cccc(OCCC3CCCCO3)c2C(=O)O1 (centres unmarked) [IVa-4-15] | 44 |
| CC(=O)N1CCC(COc2cccc3c2C(=O)OC(C(CC(C)C)NC(=O)C(O)C2C=CC(=O)O2)C3)CC1 (centres unmarked) [IVa-4-16] | 33 |
| CC(C)CC(NC(=O)C(O)C1C=CC(=O)O1)C1Cc2cccc(OCc3ccc4ccccc4c3)c2C(=O)O1 (centres unmarked) [IVa-4-17] | 33 |
| CC(C)CC(NC(=O)C(O)C1C=CC(=O)O1)C1Cc2cccc(OCCc3ccc4ccccc4c3)c2C(=O)O1 (centres unmarked) [IVa-4-18] | 33 |
| CC(C)CC(NC(=O)C(O)C1C=CC(=O)O1)C1Cc2cccc(OCCCBr)c2C(=O)O1 (centres unmarked) [IVa-4-19] | 44 |
| CCC(=O)COc1cccc2c1C(=O)OC(C(CC(C)C)NC(=O)C(O)C1C=CC(=O)O1)C2 (centres unmarked) [IVa-4-20] | 44 |
| Cc1ccc(COc2cccc3c2C(=O)OC(C(CC(C)C)NC(=O)C(O)C2C=CC(=O)O2)C3)cc1 (centres unmarked) [IVa-4-21] | 33 |
| CC(C)CCc1ccc(COc2cccc3c2C(=O)OC(C(CC(C)C)NC(=O)C(O)C2C=CC(=O)O2)C3)cc1 (centres unmarked) [IVa-4-22] | 33 |
| COc1ccc(COc2cccc3c2C(=O)OC(C(CC(C)C)NC(=O)C(O)C2C=CC(=O)O2)C3)cc1 (centres unmarked) [IVa-4-23] | 33 |
| CC(C)CCOc1ccc(COc2cccc3c2C(=O)OC(C(CC(C)C)NC(=O)C(O)C2C=CC(=O)O2)C3)cc1 (centres unmarked) [IVa-4-24] | 33 |
